Measurements reported in PubChem BioAssay AID1918930 (Molecular Pharmacology Branch, DTP, NCI, 2023).
pIC50: −log10 of the molar value. “And” between values parts separate entries of the source, which are not always exact repeats. Equal values may be shown once.

Test system: 233499-124-R-J3-PDC complex spheroid viability, % test/control
Assay: Anticancer human tumor 233499-124-R-J3-PDC patient-derived colon adenocarcinoma cell line growth inhibition
Conditions: for viability, T/C: stronger effect = lower value
Description: Multicellular complex tumor spheroid response to LSD1 Inhibitor Iadademstat in combination with a variety of drugs and investigational agents in selected tumor cell lines
The current study was undertaken to assess response to LSD1 inhibitors in combination with standard-of-care drugs and investigational agents in solid tumor complex spheroid models as well as in the K-562 leukemia. Complex spheroids include a stromal component modeled by human endothelial cells (HUVEC) and fibroblasts modeled by human mesenchymal stem cells (MSCs). The concentration ranges selected for each drug and investigational agent were based upon clinically achievable concentrations if the clinical Cmax of the agent was known.
Compounds. The drugs and investigational agents used in this study are listed on Table 1. All of the agents used, including staurosporine (NSC755774) and gemcitabine (NSC613327), were obtained from the Developmental Therapeutics Program, NCI. FDA-approved anticancer drugs are available from the NCI at http://dtp.nci.nih.gov/branches/dscb/oncology_drugset_explanation.html. Drugs and investigational agents were >95% pure by proton nuclear magnetic resonance (NMR) and liquid chromatography/mass spectrometry (LC/MS). Stock solutions were prepared at 400x in DMSO, stored at -70 degrees C, and diluted in fresh medium prior to their use. The final concentration of DMSO in cell culture wells never exceeded 0.25% (v/v). The FDA-approved anticancer drug set is available from the Developmental Therapeutics Program at https://dtp.cancer.gov/organization/dscb/obtaining/available_plates.htm. All drugs and investigational agents were tested over a range starting from a high concentration at or near the clinical Cmax and decreasing in half-log increments. If the clinical Cmax for an agent had not been determined, the highest concentration tested was 10 microM.
Cell Lines. The patient-derived cancer cell (PDC) lines: 292921-168-R-J2-PDC, K24384-001-R-PDC, and 521955-158-R2-J5-PDC pancreatic carcinomas, 556581-035-R-J1 ovarian carcinoma, 324938-238-R-J1-PDC, 855422-203-R-J1-PDC and 883617-216-R-J1-PDC urothelial bladder carcinomas, 743489-274-T-PDC renal cell carcinoma, 138582-R-J1 Merkel cell tumor, K60290-347-R-J1 and K57222-313-R-J1-PDC glioblastomas, 653999-131-R-J2-PDC, LG0703-F948-PDC, and 349418-098-R-PDC non-small cell lung carcinomas, 885512-296-R-J2-PDC, 171881-019-R-J1-PDC breast carcinomas and 186277-243-T-J2-PDC and 233499-124-R-J2-PDC colon carcinomas were obtained from the NCI Patient-Derived Models Repository (PDMR, https://pdmr.cancer.gov). The established cell lines NCI/ADR-RES (RRID:CVCL_14520 and OVCAR-5 (RRID:CVCL_1628) ovarian carcinomas, 786-O (RRID:CVCL_1051) and A498 (RRID:CVCL_A498) renal cell carcinoma, NCI-H211 (ATCC, cat. CRL-5824; RRID:CVCL_1529), NCI-H196 (ATCC, cat. CRL-5823, RRID:CVCL_1509), SW 1271 (ATCC, cat. CRL-2177, RRID:CVCL_1716) and NCI-H1876 (ATCC, cat. CRL-5902, RRID:CVCL_1503) small cell lung carcinomas, MDA-MB-231 (RRID:CVCL_0062) and MDA-MB-468 (RRID:CVCL_0419)breast carcinomas (10-12). Pooled donor human umbilical vein endothelial cells (HUVEC, Lonza, cat. CC-2519) and human mesenchymal stem cells (hMSC, Lonza, cat. PT-2501) were purchased from Lonza (Walkersville, MD).
Cell Culture. All cells were maintained in an incubator at 37 degrees C and 5% CO2 with 95% humidity. The PDC lines were cultured according to standard operating procedures established by the NCI PDMR (https://pdmr.cancer.gov). Briefly all PDCs were thawed and cultured in Matrigel-coated flasks prepared with a working solution of 1X Ham's F-12 nutrient mix, without supplementation (Invitrogen, Waltham, MA, cat. 11765054), 100 U/mL penicillin-streptomycin (Invitrogen, cat. 15140122), and 2.5% Matrigel (Corning Inc., Corning, NY, cat. 354248) for the first three passages. […]
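Note: spheroids exposed to agents for one week before readout.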

Row | pIC50 (curve of compound) | SMILES | viability, T/C (compound 0.00316 µM) | viability, T/C (compound 0.01 µM) | viability, T/C (compound 0.0316 µM) | viability, T/C (compound 0.1 µM) | viability, T/C (compound 0.316 µM) | viability, T/C (compound 1 µM) | viability, T/C (compound 0.00949 µM) | viability, T/C (compound 0.03 µM) | viability, T/C (compound 0.0949 µM) | viability, T/C (compound 0.3 µM) | other results
1 | 8.24 and 8.31 | CC(C)CC(NC(=O)CNC(=O)c1cc(Cl)ccc1Cl)B1OC(=O)CC(CC(=O)O)(C(=O)O)O1 (stereo unspecified) | 102% and 78.5% | 9.9% and 4.05% | 7.32% and 0.21% | 5.06% and 0.23% |  |  |  |  |  |  | viability, T/C (compound 0.000316 µM): 90.6% and 106%; viability, T/C (compound 0.001 µM): 89.8% and 95.7%
2 | < 5.00 and 5.59 | CC1(C)CCC(CN2CCN(c3ccc(C(=O)NS(=O)(=O)c4ccc(NCC5CCOCC5)c([N+](=O)[O-])c4)c(Oc4cnc5[nH]ccc5c4)c3)CC2)=C(c2ccc(Cl)cc2)C1 |  |  | 96.6% and 90.8% | 93.2% and 96.6% | 118% and 99.7% | 112% and 93.5% |  |  |  |  | viability, T/C (compound 3.16 µM): 120% and 40.8%
3 | 7.55 and 7.66 | CCc1c2c(nc3ccc(O)cc13)-c1cc3c(c(=O)n1C2)COC(=O)[C@]3(O)CC |  |  |  |  |  |  | 101% and 94% | 47.5% and 33.5% | 16.6% and 32.4% | 26.7% and 28.5% | viability, T/C (compound 0.000949 µM): 91.8% and 92.6%; viability, T/C (compound 0.003 µM): 106% and 117%
4 | > 8.50 | COc1cc(Nc2ncc3c(n2)-c2ccc(Cl)cc2C(c2c(F)cccc2OC)=NC3)ccc1C(=O)O | 43.2% | 61% | 55.2% | 63.2% | 63.9% | 84.3% |  |  |  |  | 
5 | < 7.00 | Cn1ncnc1C1c2n[nH]c(=O)c3cc(F)cc(c23)NC1c1ccc(F)cc1 (stereo unspecified) | 91.4% and 98% | 77.6% and 88.7% | 77.7% and 85.1% | 93.4% and 82.7% |  |  |  |  |  |  | viability, T/C (compound 0.000316 µM): 105% and 92.2%; viability, T/C (compound 0.001 µM): 95.1% and 80.9%
6 | 6.20 and 6.40 | Nc1ccccc1NC(=O)c1ccc(CNC(=O)OCc2cccnc2)cc1 |  |  |  |  |  |  | 90.9% and 83.5% | 101% and 93.5% | 84.8% and 81% | 90% and 63.2% | viability, T/C (compound 0.949 µM): 28.9% and 12.3%; viability, T/C (compound 3 µM): 4.68% and 3.17%
7 | 6.88 and 6.80 | Nc1ncn(C2CC(O)C(CO)S2)c(=O)n1 (stereo unspecified) |  |  |  |  |  |  | 119% and 95.5% | 100% and 94% | 59.1% and 62.5% | 28.4% and 35% | viability, T/C (compound 0.000949 µM): 92.5% and 83.6%; viability, T/C (compound 0.003 µM): 96% and 87.5%
8 | 6.72 and < 6.00 | O=C(C=Cn1cnc(-c2cc(C(F)(F)F)cc(C(F)(F)F)c2)n1)NNc1cnccn1 | 102% and 76.2% | 106% and 79.7% | 98.9% and 61.4% | 54.3% and 71.6% | 46.3% and 88.5% | 11.6% and 62% |  |  |  |  | 
9 | < 5.00 | O=C(c1cc(Cc2n[nH]c(=O)c3ccccc23)ccc1F)N1CCN(C(=O)C2CC2)CC1 |  |  | 91.1% and 97.1% | 92.6% and 76.9% | 113% and 88.8% | 97.3% and 90.8% |  |  |  |  | viability, T/C (compound 3.16 µM): 76.1% and 75.5%; viability, T/C (compound 10 µM): 80.3% and 84.2%

Continued, compound first:

Row | SMILES | pIC50 (curve of compound) | viability, T/C (compound 0.00316 µM) | viability, T/C (compound 0.01 µM) | viability, T/C (compound 0.0316 µM) | viability, T/C (compound 0.1 µM) | viability, T/C (compound 0.316 µM) | viability, T/C (compound 1 µM) | viability, T/C (compound 0.00949 µM) | viability, T/C (compound 0.03 µM) | viability, T/C (compound 0.0949 µM) | viability, T/C (compound 0.3 µM) | other results
10 | CC(C)CC(NC(=O)C(Cc1ccccc1)NC(=O)c1cnccn1)B(O)O (stereo unspecified) | 8.68 and 9.30 | 21.4% and 0.26% | 7.18% and 0.25% | 5.21% and 0.25% | 3.6% and 0.35% |  |  |  |  |  |  | viability, T/C (compound 0.000316 µM): 96% and 81.8%
11 | CC(C)c1c(-c2ccccc2)nc2c(C#N)c[nH]n2c1=O | < 5.00 |  |  | 90.9% and 92.4% | 103% and 96.3% | 92.6% and 89.1% | 95% and 106% |  |  |  |  | viability, T/C (compound 3.16 µM): 105% and 102%; viability, T/C (compound 10 µM): 96.2% and 115%
12 | CC1COCCN1c1cc(-c2ccnn2C)c2ccnc(-c3ccn[nH]3)c2n1 (stereo unspecified) |  | 91.4% and 59.2% | 93.3% and 48.8% | 61.6% and 40.6% | 34.6% and 38.1% | 16.5% and 47.6% | 31.2% and 97.3% |  |  |  |  | 
13 | CC1COCCN1c1cc(C2(S(C)(=N)=O)CC2)nc(-c2ccnc3[nH]ccc23)n1 (stereo unspecified) | < 5.00 |  |  | 86% and 97.4% | 92.5% and 98.9% | 75.2% and 90.7% | 65.8% and 86.7% |  |  |  |  | viability, T/C (compound 3.16 µM): 49.3% and 53.9%; viability, T/C (compound 10 µM): 63.4% and 54.3%
14 | CCN(c1cc(-c2ccc(CN3CCOCC3)cc2)cc(C(=O)NCc2c(C)cc(C)[nH]c2=O)c1C)C1CCOCC1 | < 5.52 |  |  |  |  |  |  | 81.1% and 101% | 86.2% and 103% | 101% and 96% | 103% and 97.8% | viability, T/C (compound 0.949 µM): 110% and 83.4%; viability, T/C (compound 3 µM): 99.1% and 52.7%
15 | CC[C@@]1(O)C(=O)OCc2c1cc1n(c2=O)Cc2cc3c(CN(C)C)c(O)ccc3nc2-1 | < 7.00 | 63.5% and 72.9% | 51.6% and 62.8% | 70% and 69.2% | 94.3% and 109% |  |  |  |  |  |  | viability, T/C (compound 0.000316 µM): 79.7% and 94.3%; viability, T/C (compound 0.001 µM): 70% and 85.8%
16 | COc1cc(C2c3cc4c(cc3C(OC3OC5COC(C)OC5C(O)C3O)C3COC(=O)C23)OCO4)cc(OC)c1O (stereo unspecified) | < 5.52 |  |  |  |  |  |  | 90.2% and 92.1% | 91.5% and 80.9% | 97.4% and 88.9% | 89% and 59.5% | viability, T/C (compound 0.949 µM): 65.2% and 53.7%; viability, T/C (compound 3 µM): 59% and 47.7%
17 | COc1ccc([C@@H](O)c2cc(-c3ncnc4cc(N5CCOCC5)ccc34)c(F)cc2Cl)nn1 | 5.38 and 5.23 |  |  | 81.5% and 87.1% | 76.2% and 85.3% | 77% and 72.1% | 82.3% and 74.6% |  |  |  |  | viability, T/C (compound 3.16 µM): 61.9% and 68.9%; viability, T/C (compound 10 µM): 12.8% and 35.8%
18 | NC1CC1c1ccc(-c2cccc(O)c2)cc1 (stereo unspecified) |  |  |  |  | 91.3% and 107% |  |  |  |  |  |  | pIC50 (compound alone, run of 02/01/2022): < 5.00
19 | NC1CCC(NC2CC2c2ccccc2)CC1 (stereo unspecified) |  |  |  |  |  |  |  |  |  |  |  | pIC50 (compound alone, run of 01/24/2022): < 5.00
20 | NS(=O)(=O)OCC1CC(n2ccc3c(NC4CCc5ccccc54)ncnc32)CC1O (stereo unspecified) | 7.35 and 7.31 |  |  |  |  |  |  | 106% and 87.5% | 58.4% and 62.6% | 35.3% and 33.8% | 12.7% and 6.06% | viability, T/C (compound 0.949 µM): 7.91% and 3.62%; viability, T/C (compound 3 µM): 6.79% and 2.48%
21 | Nc1ccn(C2OC(CO)C(O)C2(F)F)c(=O)n1 (stereo unspecified) |  |  |  |  |  |  |  | 40.4% and 80.5% | 26.6% and 68.5% | 31% and 48.6% | 54.3% and 46.2% | viability, T/C (compound 0.000949 µM): 69.7% and 82.2%; viability, T/C (compound 0.003 µM): 36.4% and 84.6%
22 | Nc1ncn(C2CC(O)C(CO)O2)c(=O)n1 (stereo unspecified) | < 6.00 | 81% and 90.1% | 88.7% and 101% | 83.8% and 87.1% | 89.8% and 79.8% | 106% and 94.6% | 104% and 77.4% |  |  |  |  | 
23 | O=C(C=Cc1cccc(S(=O)(=O)Nc2ccccc2)c1)NO | 5.52 and < 5.52 |  |  |  |  |  |  | 93.1% and 104% | 116% and 98.3% | 128% and 104% | 141% and 98.9% | viability, T/C (compound 0.949 µM): 26.7% and 9.27%; viability, T/C (compound 3 µM): 96.4% and 90.1%
